Assay results from PubChem BioAssay AID1959 (Broad Institute, 2009).
The source made the active and inactive calls.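 Rule for the calls: active = growth-inhibition EC50 no more than tenfold above the top tested dose; inconclusive = flat fit between 30% and 70% inhibition, or unreliable fit; inactive = EC50 more than tenfold above the top tested dose.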

These molecules were tested on E. coli NEB5alpha growth, BacTiter-Glo luminescence, 4 h (assay: antibacterial activity against E. coli NEB5alpha – luminescence, counter-screen for MEX-5/POS-1 RNA-binding inhibitor project, dose response (AID 1959);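 note: pUC19-transformed ampicillin-resistant cells grown in LB with ampicillin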).
`O=C1NC(=O)[C@@H]2C3c4ccccc4C=CN3[C@H](C(=O)c3cccs3)[C@H]12` (some centres not stated) was tested, and the EC50 was > 11 µM (inactive). `N#Cc1c(N)nc(SCc2ccccc2)c(C#N)c1-c1ccco1` was tested, and the EC50 was > 11 µM (inactive). For `CCOc1ccc(S(=O)(=O)Nc2cc(SCC(=O)O)c(O)c3ccccc23)cc1`, the EC50 was > 11 µM (inactive). `O=C(O)c1ccc2c(c1)C(=O)/C(=C\c1ccco1)C2=O` was tested, and the EC50 was > 11 µM (inactive). For `COC(=O)c1ccccc1NCc1cc(=O)oc2cc(O)c(O)cc12`, the EC50 was > 11 µM (inactive). For `CN(C)c1ccnc(Oc2ccc(Cl)cc2)c1C#N`, the EC50 was > 11 µM (inactive). In the case of `Cn1c(O)c(/C=C2\C=Nc3ccccc32)c(=O)n(C)c1=O`, the EC50 is reported as > 11 µM (inactive). `O=C1CS/C(=N/N=C/c2cccs2)N1` was tested, and the EC50 was > 11 µM (inactive). With `CC1=C(C#N)C(=O)OC(C)(C)C1` the EC50 was > 11 µM (inactive). In the case of `O=c1[nH]c(=O)n(CC2CCCO2)c(O)c1/C=C1\C=Nc2ccccc21` (configuration not stated), the EC50 is reported as > 11 µM (inactive). In the case of `COCCNC(=O)C1Nc2ccc(C(F)(F)F)cc2C2C=CCC12` (configuration not stated), the EC50 is reported as > 11 µM (inactive). `CC1=C(C#N)C(=O)NC(=O)/C1=C\c1ccc(-c2ccc(C)cc2[N+](=O)[O-])o1` was tested, and the EC50 was > 11 µM (inactive). With `CC1=NOC(=O)/C1=C\c1ccc2c(c1)OCO2` the EC50 was > 11 µM (inactive). `CC1=NN(C(N)=S)C(=O)C1N=Nc1ccc(S(N)(=O)=O)cc1` (configuration not stated) was tested, and the EC50 was > 11 µM (inactive). `CNC(=O)NC(=O)COC(=O)c1ccc(-n2c(C)ccc2C)cc1` was tested, and the EC50 was > 11 µM (inactive). For `O=c1c(/C=C(\O)c2ccccc2)nc2ccccc2n1-c1ccccc1`, the EC50 was > 11 µM (inactive). With `N#CC1=C(N)C(C#N)(C#N)[C@H](c2ccsc2)[C@H]2COCC=C12` the EC50 was > 11 µM (inactive). With `Cc1cc[n+](C2=C([O-])c3ccccc3C(=O)/C2=N\S(=O)(=O)c2cccs2)cc1C` the EC50 was > 11 µM (inactive). In the case of `Brc1ccc(C2=CC(c3ccco3)n3ncnc3N2)cc1` (configuration not stated), the EC50 is reported as > 11 µM (inactive). `O=c1oc2ccc(Cl)cc2nc1/C=C(\O)c1cccs1` was tested, and the EC50 was > 11 µM (inactive). With `CCCCC1=CC2=C(c3ccco3)C(=O)C(C)(OC(=O)c3ccc(OC)cc3)C(=O)C2=CN1CCN1CCOCC1` (configuration not stated) the EC50 was > 11 µM (inactive). In the case of `COc1ccc(C(=O)/C=C2\NCC3c4ccccc4CCN3C2=O)cc1` (configuration not stated), the EC50 is reported as > 11 µM (inactive). In the case of `FC(F)(F)c1cc(C(F)(F)F)n2nc(-c3sccc3-n3cccc3)cc2n1`, the EC50 is reported as > 11 µM (inactive). With `O=C(N/N=C/c1ccc(-c2ccc([N+](=O)[O-])cc2)o1)c1cccnc1` the EC50 was > 11 µM (inactive). For `Cc1cc(/C=C2\C(=O)NC(=O)N(Cc3ccco3)C2=O)c(C)n1-c1ccc(C(=O)O)cc1`, the EC50 was > 11 µM (inactive). In the case of `Cc1cccc(CN2C(=O)N/C(=C/c3ccc(C)s3)C2=O)c1`, the EC50 is reported as > 11 µM (inactive). With `COc1ccc(/C=C2\SC(=S)N(CCCC(=O)NC3CCCC3)C2=O)cc1OC` the EC50 was > 11 µM (inactive). For `Clc1ccc(C2=CC(c3ccco3)n3ncnc3N2)cc1` (configuration not stated), the EC50 was > 11 µM (inactive). For `CC1CCN(C(=O)CCN2C(=O)/C(=C/c3cccs3)SC2=S)CC1`, the EC50 was > 11 µM (inactive). In the case of `N#CC(c1nc2ccccc2nc1OCCO)S(=O)(=O)c1ccccc1` (configuration not stated), the EC50 is reported as > 11 µM (inactive). In the case of `COc1cc(/C=C2/C(=O)NN(c3cccc(C)c3)C2=O)cc([N+](=O)[O-])c1O`, the EC50 is reported as > 11 µM (inactive). For `O=C(CC1Nc2ccccc2NC1=O)c1ccccc1` (configuration not stated), the EC50 was > 11 µM (inactive). With `Cc1cc(=O)[nH]c(N/N=C/c2ccc(O)c(O)c2)n1` the EC50 was > 11 µM (inactive). In the case of `NC1=NC(=O)/C(=C/c2ccc(-c3ccc(S(N)(=O)=O)cc3)o2)S1`, the EC50 is reported as > 11 µM (inactive). With `CCC(=O)OC1(C)C(=O)C=C2C=C(C3CC3)OC=C2C1=O` (configuration not stated) the EC50 was > 11 µM (inactive). With `CCc1ccc(N2C(=O)NC(=O)/C(=C\c3cc(C)n(-c4cc(C(=O)O)cc(C(=O)O)c4)c3C)C2=O)cc1` the EC50 was > 11 µM (inactive). `CC(=O)n1c(C=Nc2ccccc2)c(O)c2ccccc21` was tested, and the EC50 was > 11 µM (inactive). In the case of `Cn1nc(C(F)(F)F)cc1-c1ccc(/C=C(\C#N)C(=O)c2ccccc2)s1`, the EC50 is reported as > 11 µM (inactive). `Cc1sc(-n2c(C)cc(C=C3C(=O)NC(=O)NC3=O)c2C)c(C#N)c1C` was tested, and the EC50 was > 11 µM (inactive). `O=c1[nH]c(=O)n(Cc2ccccc2Cl)c(O)c1C=Nc1ccc(F)cc1` was tested, and the EC50 was > 11 µM (inactive). In the case of `CC(C)CNC(=O)c1ccc(C2SCC(=O)N2Cc2ccccc2)cc1` (configuration not stated), the EC50 is reported as > 11 µM (inactive). `NS(=O)(=O)c1ccc(Nc2nc(-c3ccc(O)cc3O)cs2)cc1` was tested, and the EC50 was > 11 µM (inactive). With `CCN(CC)c1nc(-c2nn[nH]n2)nc(N(CC)CC)n1` the EC50 was > 11 µM (inactive). In the case of `CCN(CC)c1ccc(N=Cc2c(O)n(-c3cc(OC)ccc3OC)c(=O)[nH]c2=O)cc1`, the EC50 is reported as > 11 µM (inactive). For `COc1cc2c3nnc(-c4ccccc4)c-3cn(Cc3ccc(F)cc3)c2cc1OC`, the EC50 was > 11 µM (inactive). For `CCOC(=O)C1CCN(C(=O)c2ccc3c(c2)NC(=O)/C(=C\c2ccc(C)cc2)S3)CC1`, the EC50 was > 11 µM (inactive). With `CCOC(=O)c1ccc(-c2ccc(C=O)o2)cc1` the EC50 was > 11 µM (inactive). For `Cc1cc([N+](=O)[O-])nn1CC(=O)NNC(=S)Nc1ccc([N+](=O)[O-])cc1`, the EC50 was > 11 µM (inactive). For `COCCCNC(=O)CCC(=O)NNc1nc2ccccc2c2nc(C)nn12`, the EC50 was > 11 µM (inactive). `COc1ccc(NC(=O)Nc2cc(C)cc(C)c2)cn1` was tested, and the EC50 was > 11 µM (inactive). With `CCN(CC)C(=O)c1ccc2c(c1)C1C=CCC1C(C(=O)O)N2` (configuration not stated) the EC50 was > 11 µM (inactive). `O=C(NNC(=S)NC(=O)c1ccccc1[N+](=O)[O-])c1ccccc1O` was tested, and the EC50 was > 11 µM (inactive). In the case of `Oc1ccc(CCNc2c3ccccc3nc3ccccc23)cc1O`, the EC50 is reported as > 11 µM (inactive). In the case of `COC(=O)C1=C(C)N=C2SC(C#N)=C(N)N2C1c1cccc(OC)c1` (configuration not stated), the EC50 is reported as > 11 µM (inactive). For `CCN1C=CC2=C(C#N)C(N)C(C#N)(C#N)C(c3ccccc3C(F)(F)F)C2C1` (configuration not stated), the EC50 was > 11 µM (inactive). `ON=C1/C(=N\O)CC2(C/C1=N/O)OCCO2` was tested, and the EC50 was > 11 µM (inactive). For `CCn1c(CNC(=O)c2ccc(Cl)cc2)nnc1SCC(=O)N1CCOCC1`, the EC50 was > 11 µM (inactive). With `c1ccc(-c2nnc(-c3ccccn3)nn2)nc1` the EC50 was > 11 µM (inactive). For `CCCCNC(=S)NNC(=O)c1cc(C)on1`, the EC50 was > 11 µM (inactive). In the case of `Cc1cc(C=C2C(=O)c3ccccc3C2=O)c(C)n1-c1ccc(Cl)cc1`, the EC50 is reported as > 11 µM (inactive). With `Oc1ccc2ccccc2c1/C=N/Nc1nnc(-c2ncc[nH]2)c2ccccc12` the EC50 was > 11 µM (inactive). With `O=C1c2ccccc2-c2onc3ccc(NCc4ccco4)c1c23` the EC50 was > 11 µM (inactive). In the case of `Oc1cccc(/C=N/N=C/c2cccc(O)c2O)c1O`, the EC50 is reported as > 11 µM (inactive). In the case of `COC1(OC)N=C(N)C2(C#N)C(c3ccc4c(c3)OCO4)C12C#N` (configuration not stated), the EC50 is reported as > 11 µM (inactive). For `Oc1ccc(-c2cn3c(n2)SCC3)cc1O`, the EC50 was > 11 µM (inactive). `CCCCC1=CC2=CC(=O)C(C)(OC(=O)c3ccc(Cl)nc3)C(=O)C2=CO1` (configuration not stated) was tested, and the EC50 was > 11 µM (inactive). With `CCOc1cc(/C=C2\C(=O)NN(c3ccccc3)C2=O)cc([N+](=O)[O-])c1O` the EC50 was > 11 µM (inactive). For `COc1cccc(OCCn2cc(C=O)c3ccccc32)c1`, the EC50 was > 11 µM (inactive). `COC(=O)Cn1cc(/C=C2\C(=O)NC(=O)N(c3ccccc3)C2=O)c2ccccc21` was tested, and the EC50 was > 11 µM (inactive). For `Cc1cc(C)nc(NN2C(=O)C=CC2=O)n1`, the EC50 was > 11 µM (inactive). For `COc1cccc(C2(O)CCN(CC(=O)Nc3nc(C)cs3)CC2)c1`, the EC50 was > 11 µM (inactive). `c1ccc(C2=NNC(c3ccccn3)=NN2)nc1` was tested, and the EC50 was > 11 µM (inactive). With `Cc1ccc(/C=C/C(=O)c2ccc(N3CCOCC3)cc2)s1` the EC50 was > 11 µM (inactive). In the case of `CN1CCc2cccc3c2[C@H]1Cc1ccc(O)c(O)c1-3`, the EC50 is reported as > 11 µM (inactive). In the case of `CN=c1scc(C)n1/N=C/c1ccc(O)c(O)c1O`, the EC50 is reported as > 11 µM (inactive). For `Cc1ncc(CO)c(/C=N/NC(=O)c2cc(O)c(O)c(O)c2)c1O`, the EC50 was > 11 µM (inactive). With `CN(C)c1ccc(N=Cc2nc(-c3ccccc3)oc2O)cc1` the EC50 was > 11 µM (inactive). For `O=c1[nH]c(=S)[nH]c2c1C(c1ccc(Br)cc1)c1c([nH]c(=S)[nH]c1=O)O2`, the EC50 was > 11 µM (inactive). With `C1=CC2c3ccccc3NC(c3ccncc3)C2C1` (configuration not stated) the EC50 was > 11 µM (inactive). For `N=C1/C(=C\c2ccc(SCc3ccco3)o2)C(=O)N=C2SC=NN12`, the EC50 was > 11 µM (inactive). In the case of `COc1cccc(/C=N/NC(=O)c2ccc(=O)[nH]n2)c1O`, the EC50 is reported as > 11 µM (inactive). For `Cc1ccc2nc3sc(C(=O)N4CCOCC4)c(N)c3cc2c1`, the EC50 was > 11 µM (inactive). `N#CC1=C(N)C(C#N)(C#N)C(c2cccnc2)C2COCC=C12` (configuration not stated) was tested, and the EC50 was > 11 µM (inactive). `COc1cc(OC)c(C2C(C#N)=C(N)OC3=C2C(=O)CC(C)C3)cc1OC` (configuration not stated) was tested, and the EC50 was > 11 µM (inactive). With `CC(C)C1Nc2c(O)cc(Cl)c([N+](=O)[O-])c2C2C=CCC21` (configuration not stated) the EC50 was > 11 µM (inactive). For `O=C(O)c1ccc(-n2cccc2)cc1O`, the EC50 was > 11 µM (inactive). For `C/C(=N\Nc1ncnc2sc(C)c(C)c12)c1ccccn1`, the EC50 was > 11 µM (inactive). With `COC(=O)Cn1cc(/C=C2\C(=O)NC(=O)N(c3ccc(OC)cc3)C2=O)c2ccccc21` the EC50 was > 11 µM (inactive). `CCn1cc(C=C2C(=O)NC(=O)NC2=O)c2ccccc21` was tested, and the EC50 was > 11 µM (inactive). In the case of `Cc1ccc(S(=O)(=O)/N=C2\C=C(Nc3cccc(C(=O)O)c3)C(=O)c3ccccc32)c(C)c1`, the EC50 is reported as > 11 µM (inactive). `O=C(N/N=C/c1cc(Cl)cc([N+](=O)[O-])c1O)C(O)(c1ccccc1)c1ccccc1` was tested, and the EC50 was > 11 µM (inactive). `O=C1c2ccccc2S(=O)(=O)c2cc(N3CCC(C(=O)N4CCCCC4)CC3)ccc21` was tested, and the EC50 was > 11 µM (inactive). With `N#CC1=C(N)OC2=C(C(=O)CCC2)C1c1ccc2c(c1)OCO2` (configuration not stated) the EC50 was > 11 µM (inactive). For `CCCCC1=CC2=C(c3ccco3)C(=O)C(C)(OC(=O)c3ccc(OC)cc3)C(=O)C2=CN1C1CCCC1` (configuration not stated), the EC50 was > 11 µM (inactive). With `COc1ccc(N=Cc2c(O)n(Cc3ccccc3)c(=S)[nH]c2=O)c(OC)c1` the EC50 was > 11 µM (inactive). For `Cc1cccc(-n2c(C)cc(C=C3C(=O)c4ccccc4C3=O)c2C)c1`, the EC50 was > 11 µM (inactive). For `COc1ccc(C2C(C(C)=O)=C(C)N=c3s/c(=C\c4cc(C)n(C)c4C)c(=O)n32)c(OC)c1` (configuration not stated), the EC50 was > 11 µM (inactive).
